Results reported in publication PMC8474119, “Discovery and SAR Evolution of Pyrazole Azabicyclo[3.2.1]octane Sulfonamides as a Novel Class of Non-Covalent N-Acylethanolamine-Hydrolyzing Acid Amidase (NAAA) Inhibitors for Oral Administration” (Journal of Medicinal Chemistry, 2021).

Legend:
[1] = Liver microsomal stability assay (NADPH), rat; type: in vitro ADME; conditions: male, Sprague-Dawley, pH 7.5, rat liver microsomes, read-out: LM_NADPH t1/2
Description: Pooled CD1 mouse (M1000, male), IGS Sprague-Dawley rat (R1000, male), and human (H1000, male) liver microsomes were purchased from SEKISUI XenoTech. 10 mM DMSO stock solution of the test compound (39 or 50) was preincubated at 37 °C for 15 min with mouse, rat, or human liver microsomes in 0.1 M Tris-HCl buffer (pH 7.5) with 10% DMSO. The final concentration was 4.6 μM. After preincubation, the cofactor (NADPH) was added to the incubation mixture, and the incubation was continued at 37 °C for 1 h. At each time point (0, 5, 15, 30, and 60 min), 30 μL of incubation mixture was diluted with 200 μL cold CH3CN spiked with 200 nM of an appropriate internal standard, followed by centrifugation at 3.270g for 15 min. […] A reference incubation mixture of each specie (microsomes without cofactors) was prepared for each test compound and analyzed at t = 0 and 60 min in order to verify the compound stability in the matrix. […] The supernatants were analyzed by LC–MS/MS on a Waters ACQUITY UPLC-MS TQD system consisting of a triple quadrupole detector (TQD) mass spectrometer equipped with an electrospray ionization interface and a photodiode array eλ detector (PDA) from Waters Inc. (Milford, MA, USA). […] The percentage of test compound remaining at each time point relative to t = 0 was calculated by the response factor on the basis of the internal standard peak area. […]

h-NAAA = molecular target: T1, h-NAAA (Homo sapiens, UniProt Q02083); assay: Fluorogenic human-NAAA assay (h-NAAA, fluo.); type: biochemical; conditions: for LipE: LipE = pIC50 – c Log P (h-NAAA); for pIC50: Table S1; for pIC50 / IC50: h-NAAA (fluo.); for IC50: mean ± SD (n ≥ 3), n.a.: not active @50 μM (<10% inhibition)
T1 construct: made in house; host or cells: HEK-293 cells stably overexpressing human NAAA; enzyme-enriched (lysosomal) lysate
T1 sequence (Q02083 29-125 limits assumed): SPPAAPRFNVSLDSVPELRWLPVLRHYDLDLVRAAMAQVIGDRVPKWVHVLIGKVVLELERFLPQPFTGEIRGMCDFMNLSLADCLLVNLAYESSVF
T1 sequence (Q02083 126-359 limits assumed): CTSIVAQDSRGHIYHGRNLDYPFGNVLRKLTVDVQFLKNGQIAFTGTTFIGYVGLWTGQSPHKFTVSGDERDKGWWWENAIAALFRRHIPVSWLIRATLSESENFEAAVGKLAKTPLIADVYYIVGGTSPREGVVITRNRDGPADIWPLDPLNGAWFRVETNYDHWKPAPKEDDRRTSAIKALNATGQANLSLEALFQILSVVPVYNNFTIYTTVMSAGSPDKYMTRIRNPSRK
Description: Human recombinant proteins were obtained from HEK-293 stable overexpressing human NAAA, AC, and FAAH-1 cell lines, respectively. Cells were grown in Dulbecco’s modified Eagle medium (DMEM) containing 10% FBS, 1% glutamine, 1 mM sodium pyruvate, and 500 μg/mL geneticin (G418). To obtain a high-density cell proliferation, h-NAAA-HEK-293 cells were grown in BelloCell-500 bottle, a compact bioreactor. On the contrary, h-AC and h-FAAH-1-HEK-293 cells were grown in 150 mm dishes and scraped off with cold PBS 1× pH 7.4 at 80% confluence. Cell pellets were collected and stored at −80 °C until protein preparation.
HEK-293 cells stably transfected with the human NAAA or human AC coding sequences were used as the enzyme source. Cells were suspended in 20 mM Tris-HCl (pH 7.4) with 0.32 M sucrose, sonicated, and centrifuged at 800g for 30 min at 4 °C. Supernatants were then centrifuged at 12,000g for 30 min at 4 °C. Pellets were resuspended in PBS buffer (pH 7.4) and subjected to three freeze-thaw cycles at −80 °C. The suspension was finally centrifuged at 105,000g for 1 h at 4 °C, supernatants were collected, protein concentration was measured, and samples were aliquoted and stored at −80 °C until use.
The assay was run in 96-well microplates (Black OptiPlate-96 F; PerkinElmer, Massachusetts, USA), in a total reaction volume of 200 μL. h-NAAA protein preparation (4 μg) was preincubated for 30 min with various concentrations of test compounds or vehicle control (DMSO 5%) in 100 mM citrate/phosphate buffer (pH 4.5) containing 3.0 mM DTT, 0.1% NP40, 0.05% BSA, and 150 mM NaCl. The background (no activity) samples were prepared using assay buffer without h-NAAA and DMSO (5%). N-(4-methyl-2-oxo-chromen-7-yl)-hexadecanamide (PAMCA)[60] was used as a substrate (2 μM) and the reaction was carried out for 50 min at 37 °C. Fluorescence was measured with EnVision 2014 Multilabel Reader (PerkinElmer, Massachusetts, USA) using an excitation wavelength of 355 nm and an emission of 460 nm. IC50 values were calculated by non-linear regression analysis of log[concentration]/response curves generated with mean replicate values using a four-parameter Hill equation curve fitting with GraphPad Prism 5 (GraphPad Software Inc., CA, USA).

Structure (SMILES) | half-life at 1 h, 4.6 µM [1] [min] | LipE (h-NAAA) | pIC50 (h-NAAA) | IC50 (h-NAAA) [nM]
CCCCc1ccc(O[C@H]2C[C@H]3CC[C@@H](C2)N3S(=O)(=O)c2c(C)n[nH]c2C)cc1 [Compound 39, (1R,3r,5S)-3-(4-Butylphenoxy)-8-((3,5-dimethyl-1H-pyrazol-4-yl)sulfonyl)-8-azabicyclo[3.2.1]octane] | 13 | 3.84 | 7.64 | 23 ± 4
CCOCc1cnc(O[C@H]2C[C@H]3CC[C@@H](C2)N3S(=O)(=O)c2c(C)n[nH]c2C)cn1 [Compound 50, (1R,3r,5S)-8-((3,5-Dimethyl-1H-pyrazol-4-yl)sulfonyl)-3-((5-(ethoxymethyl)pyrazin-2-yl)oxy)-8-azabicyclo[3.2.1]octane] | 48 | 6.83 | 7.38 | 42 ± 2
